Legend:
cyclin D1 [1] = assay: Cyclin D1 percentage degradation in Calu-1 cells (immunoblotting); assay type: cell-based; settings: 200 nM, 16 hours
Summary of the method: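 Cyclin D1 degradation was assessed by western blot. Clarified lysates, obtained by RIPA lysis with inhibitors and centrifugation at 13,000 rpm, were normalized by BCA protein assay and separated by SDS-PAGE. Bands were detected with Western ECL Substrate on a Bio-Rad ChemiDoc MP Imaging system and quantified in Image Lab software to derive percentage degradation.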

CDK4 = biological target: T1, CDK4 (Homo sapiens, UniProt P11802); assay: CDK4 percentage degradation in Calu-1 cells (immunoblotting); assay type: cell-based; settings: Calu-1 cells, 200 nM, 16 hours; read-out: CDK4 Degradation (200 nM)
T1 construct: endogenous in cells; host or cells: Calu-1
Summary of the method: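 CDK4 degradation was measured by immunoblotting. Cells were washed in cold PBS and lysed in RIPA buffer with inhibitors for 30 min at 4° C., then spun at 13,000 rpm to clear. After BCA protein determination, lysates were heated at 99° C. for 5 min in Laemmli buffer, resolved on SDS-PAGE, imaged on a ChemiDoc MP with ECL substrate, and band intensities quantified.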

Calu-1 = assay: Cell viability assay, Calu-1; assay type: cell-based; settings: Homo sapiens, 72 h; Calu-1, NSCLC, 3 days; read-out: Cellular Anti-proliferation activity (IC50)
Summary of the method: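 Cells were exposed to a serial dilution of test compound for 3-6 days, or 3 days with a 9-point series for CDK4/6 inhibitors and heterobifunctional compounds. Viability was read by luminescence (CellTiter-Lumi). IC50 came from nonlinear least-squares regression of dose-response curves, reported as mean±SD.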

NCI-H522 = assay: Cell viability assay, NCI-H522; assay type: cell-based; settings: Homo sapiens, 72 h; NCI-H522, NSCLC, 3 days; read-out: Cellular Anti-proliferation activity (IC50)
Procedure: (§1) Cells were treated with CDK4/6 inhibitors palbociclib, ribociclib, or abemaciclib, or heterobifunctional compounds CPD-002 or CPD-031 following a 9-point serial dilution for 3 days.
(§2) Cells were seeded at a density of 2,000-5,000 cells per well in 96-well assay plates and treated with test compounds following a 10-point serial dilution for 3-6 days. Cell viability was determined using the CellTiter-Lumi assay kit according to the manufacturer's instructions. The dose-response curves were determined and IC50 values were calculated using the GraphPad Prism software following a nonlinear regression (least squares fit) method. Data presented was mean±standard deviation (SD) unless otherwise indicated.

MDA-MB-453 = assay: Cell viability assay, MDA-MB-453; assay type: cell-based; settings: Homo sapiens, 72 h; MDA-MB-453, TNBC, 3 days; read-out: Cellular Anti-proliferation activity (IC50)
Procedure: as §1, §2

BT-549 = assay: Cell viability assay, BT-549; assay type: cell-based; settings: Homo sapiens, 72 h; BT-549, TNBC, 3 days; read-out: Cellular Anti-proliferation activity (IC50)
Procedure: as §1, §2

KURAMOCHI = assay: Cell viability assay, KURAMOCHI; assay type: cell-based; settings: 72 h, OC, 3 days, read-out: Cellular Anti-proliferation activity (IC50)
Procedure: as §1, §2

OVCAR3 = assay: Cell viability assay, OVCAR3; assay type: cell-based; settings: Homo sapiens, OVCAR-3, 72 h; OVCAR3, OC, 3 days; read-out: Cellular Anti-proliferation activity (IC50)
Procedure: as §1, §2

MIA PaCa-2 = assay: Cell viability assay, MIA PaCa-2; assay type: cell-based; settings: Homo sapiens, 72 h; MIA PaCa-2, PC, 3 days; read-out: Cellular Anti-proliferation activity (IC50)
Procedure: as §1, §2

[2] = test system: cyclin D1, cyclin D2, cyclin D3, CDK4 and CDK6; assay: Immunoblotting of cyclin D and CDK4/6 protein levels in Calu-1 cells; assay type: cell-based; settings: for cyclin D degradation after pretreatment with MG-132, MLN4924 or TAK-243: 2 hours pre-treatment, then 500 nM CPD-002, 500 nM CPD-004 or 100 nM CPD-031 for 4 h or 2 h; for time course of cyclin D1, cyclin D2 and cyclin D3 protein level reduction: CPD-002 at 500 nM, CPD-031 at 100 nM; for cyclin D1, cyclin D2, cyclin D3, CDK4 and CDK6 protein levels: indicated concentrations, 16 hours
Procedure: (§3) Calu-1 (FIG. 2A) or BT-549 (FIG. 2B) cells were treated with CPD-002, CPD-004, or palbociclib at indicated concentrations for 16 hours.
Calu-1 cells were treated with CPD-031 at indicated concentrations for 16 hours.
Calu-1 cells were treated with CPD-002 or CPD-031 at 500 nM or 100 nM, respectively for indicated period of time.
Calu-1 cells were pre-treated with DMSO, 20 μM MG-132 (MG), 5 μM MLN4924 (MLN) or 1 μM TAK-243 (TAK) for 2 hours, and subsequently incubated with 500 nM CPD-002, 500 nM CPD-004, or 100 nM CPD-031 for another 4 h or 2 h prior to immunoblotting (FIG. 5A-5B).
Calu-1 cells were treated with a dose range of negative control compounds CPD-042 or CPD-049 for 16 hours (FIG. 6A-6B).
Calu-1 cells were treated with reference compounds CP-10 or BSJ-03-123 at indicated concentrations for 8 hours.
(§4) Cultured cells were washed with cold PBS once and lysed in cold RIPA buffer supplemented with protease inhibitors and phosphatase inhibitors (Beyotime Biotechnology). The solutions were then incubated at 4° C. for 30 min with gentle agitation to fully lysed cells. Cell lysates were centrifuged at 13,000 rpm for 10 min at 4° C. and pellets were discarded. Total protein concentrations in the lysates were determined following BCA assays (Beyotime Biotechnology). Cell lysates were mixed with Laemmli loading buffer and heated at 99° C. for 5 min. Proteins were resolved on SDS-PAGE and visualized using Western ECL Substrate kits on a ChemiDoc MP Imaging system (Bio-Rad). Protein bands were quantitated using the Image Lab software provided by Bio-Rad.

[3] = test system: cyclin D1, cyclin D2, cyclin D3, CDK4 and CDK6; assay: Immunoblotting of cyclin D and CDK4/6 protein levels in BT-549 cells; assay type: cell-based; settings: indicated concentrations, 16 hours
Procedure: as §3, §4

DDB1 = biological target: T2, DDB1 (Homo sapiens, UniProt Q16531, D705G/DEL396-460/DEL463-701/I704S/T703N); assay: Surface plasmon resonance (SPR) binding of heterobifunctional compounds to DDB1; settings: purified DDB1ΔBPB immobilized on CM5 chip, multi-cycle kinetic format, steady state model, read-out: binding affinities (Kd) to DDB1
T2 construct: His6 (N, cleaved yes); TEV protease cleavage site (N, cleaved yes); made in house; host or cells: SF9 insect cells, Bac-to-Bac baculovirus, pFastBacHTB vector
Procedure: To determine whether the addition of linkers and target binders to the DDB1 ligands affected the binding to DDB1 E3 ligase, the binding affinities of heterobifunctional compounds to DDB1 was evaluated using a surface plasmon resonance (SPR) assay. Purified DDB1ΔBPB proteins were immobilized on a CM5 sensor chip and a dose range of compound solutions were injected in multi-cycle kinetic format. Data was fit to steady state model and gave equivalent dissociation constants (Kd).

cyclin D1 [4] = assay: Cyclin D1 degradation in parental and DDB1 knockout Hs578T cells; assay type: cell-based; settings: dose range, 4 hours
Procedure: Parental and DDB1 knockout Hs578T cells were treated with a dose range of CPD-031 for 4 hours (FIG. 5C).
The procedures for CRISPR-Cas9 mediated knock-out followed the previously published protocols (Ran et al., 2013). The sgRNA targeting human DDB1 (sgRNA sequence: […]) (SEQ ID NO: 1) was designed using the online CRISPR Design Tool (chopchop.cbu.uib.no/), and constructed into CRISPR-Cas9 vector, pLentiCRISPR V2 (Addgene #52961). Lentivirus was produced in HEK293T cells by co-transfecting pLentiCRISPR construct with packing vectors. Hs578T cells stably expressing Cas9 enzyme and sgRNA were established by lentivirus transduction, selected, and maintained in medium containing […] puromycin.
as §4, with “Proteins were resolved on SDS-PAGE and visualized using Western ECL Substrate kits on a ChemiDoc MP Imaging system (Bio-Rad).” left out

T1 sequence (P11802 2-303 limits assumed): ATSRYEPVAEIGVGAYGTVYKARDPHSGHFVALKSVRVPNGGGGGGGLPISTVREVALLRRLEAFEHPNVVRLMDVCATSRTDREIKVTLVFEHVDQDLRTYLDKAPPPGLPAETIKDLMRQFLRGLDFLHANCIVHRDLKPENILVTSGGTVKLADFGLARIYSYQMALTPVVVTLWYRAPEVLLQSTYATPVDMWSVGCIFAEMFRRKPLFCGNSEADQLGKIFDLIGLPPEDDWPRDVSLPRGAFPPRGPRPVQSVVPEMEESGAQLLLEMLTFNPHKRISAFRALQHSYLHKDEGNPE
T1 sequence (P24385 whole entry partner): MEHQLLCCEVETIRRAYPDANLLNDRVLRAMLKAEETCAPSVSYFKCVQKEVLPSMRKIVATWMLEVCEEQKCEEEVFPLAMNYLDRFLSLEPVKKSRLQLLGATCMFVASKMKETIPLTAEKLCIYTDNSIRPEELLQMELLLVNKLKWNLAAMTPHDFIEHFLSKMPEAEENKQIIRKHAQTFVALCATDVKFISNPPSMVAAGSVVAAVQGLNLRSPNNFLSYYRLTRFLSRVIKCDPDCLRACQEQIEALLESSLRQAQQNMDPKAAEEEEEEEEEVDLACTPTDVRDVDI
T1 sequence (Q16531 2-1140 limits assumed, further chain): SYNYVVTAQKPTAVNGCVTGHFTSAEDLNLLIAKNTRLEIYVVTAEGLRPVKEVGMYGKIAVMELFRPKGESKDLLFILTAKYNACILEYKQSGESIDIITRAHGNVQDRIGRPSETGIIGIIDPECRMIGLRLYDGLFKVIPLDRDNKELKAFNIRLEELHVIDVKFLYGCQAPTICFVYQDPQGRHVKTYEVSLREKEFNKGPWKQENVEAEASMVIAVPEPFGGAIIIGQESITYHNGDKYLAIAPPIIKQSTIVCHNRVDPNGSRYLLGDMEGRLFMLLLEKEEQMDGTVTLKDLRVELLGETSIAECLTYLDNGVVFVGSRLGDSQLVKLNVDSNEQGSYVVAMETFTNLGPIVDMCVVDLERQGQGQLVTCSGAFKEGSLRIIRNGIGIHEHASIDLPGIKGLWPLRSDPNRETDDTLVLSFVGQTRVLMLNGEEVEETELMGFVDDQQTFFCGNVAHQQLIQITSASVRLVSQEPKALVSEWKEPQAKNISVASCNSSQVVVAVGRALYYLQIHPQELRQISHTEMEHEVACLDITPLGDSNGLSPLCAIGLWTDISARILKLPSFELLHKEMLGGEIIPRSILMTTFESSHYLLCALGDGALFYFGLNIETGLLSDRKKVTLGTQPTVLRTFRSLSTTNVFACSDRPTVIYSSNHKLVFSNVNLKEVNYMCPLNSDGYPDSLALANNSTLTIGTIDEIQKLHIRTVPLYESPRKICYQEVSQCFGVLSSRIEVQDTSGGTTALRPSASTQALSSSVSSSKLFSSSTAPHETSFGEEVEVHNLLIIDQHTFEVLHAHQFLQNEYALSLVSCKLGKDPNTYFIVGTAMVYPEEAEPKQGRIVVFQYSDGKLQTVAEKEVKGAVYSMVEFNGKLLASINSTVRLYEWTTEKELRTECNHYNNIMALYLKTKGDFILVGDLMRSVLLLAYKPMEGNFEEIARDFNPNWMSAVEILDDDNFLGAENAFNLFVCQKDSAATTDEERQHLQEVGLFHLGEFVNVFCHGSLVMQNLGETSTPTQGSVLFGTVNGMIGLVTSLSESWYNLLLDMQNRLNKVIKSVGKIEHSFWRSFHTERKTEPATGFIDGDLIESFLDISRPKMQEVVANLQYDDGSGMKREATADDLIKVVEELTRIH
T2 sequence (Q16531 other isoform, or with tags, fused parts or gaps DEL396-460/DEL463-701/T703N/I704S/D705G): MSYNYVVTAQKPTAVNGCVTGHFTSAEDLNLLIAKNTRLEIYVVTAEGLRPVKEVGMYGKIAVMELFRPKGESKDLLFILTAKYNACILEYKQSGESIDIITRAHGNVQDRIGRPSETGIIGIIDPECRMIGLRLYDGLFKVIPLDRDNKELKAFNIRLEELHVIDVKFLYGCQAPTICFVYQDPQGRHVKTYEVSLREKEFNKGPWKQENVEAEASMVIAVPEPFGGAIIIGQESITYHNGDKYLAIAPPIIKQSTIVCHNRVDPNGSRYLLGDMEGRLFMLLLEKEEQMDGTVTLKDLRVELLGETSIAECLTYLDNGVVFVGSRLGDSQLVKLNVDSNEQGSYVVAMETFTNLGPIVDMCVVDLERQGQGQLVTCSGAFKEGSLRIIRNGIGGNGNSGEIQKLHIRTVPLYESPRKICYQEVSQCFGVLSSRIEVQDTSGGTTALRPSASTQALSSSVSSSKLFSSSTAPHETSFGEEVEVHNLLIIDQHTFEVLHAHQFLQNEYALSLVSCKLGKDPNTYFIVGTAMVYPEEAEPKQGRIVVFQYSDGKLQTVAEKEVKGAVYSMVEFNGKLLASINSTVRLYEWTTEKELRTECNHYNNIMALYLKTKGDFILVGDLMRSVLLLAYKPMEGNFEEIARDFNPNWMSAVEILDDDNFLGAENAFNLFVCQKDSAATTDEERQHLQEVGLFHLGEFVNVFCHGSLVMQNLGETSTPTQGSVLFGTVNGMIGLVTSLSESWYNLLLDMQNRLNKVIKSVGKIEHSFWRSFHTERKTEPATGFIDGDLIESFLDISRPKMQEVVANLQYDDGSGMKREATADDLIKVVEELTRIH

SMILES: CC(=O)c1c(C)c2cnc(Nc3ccc(N4CCN(CC(=O)NCCOCCOCCOCCOCCOCCNc5ccc(C(=O)Nc6ncc(C)s6)c(C)c5)CC4)cn3)nc2n(C2CCCC2)c1=O [CPD-002, 4-((1-(4-(6-((6-Acetyl-8-cyclopentyl-5-methyl-7-oxo-7,8-dihydropyrido[2,3-d]pyrimidin-2-yl)amino)pyridin-3-yl)piperazin-1-yl)-2-oxo-6,9,12,15,18-pentaoxa-3-azaicosan-20-yl)amino)-2-methyl-N-(5-methylthiazol-2-yl)benzamide]
- CyclinD1 Degradation (200 nM) (cyclin D1 [1]): A (protein percentage degradation >=80%)
- inhibition at 0.2 µM (CDK4): 50 to 80%
- IC50 (Calu-1): 68 nM
- IC50 (NCI-H522): 638 nM
- IC50 (MDA-MB-453): 741 nM
- IC50 (BT-549): 690 nM
- IC50 (KURAMOCHI): 920 nM
- IC50 (OVCAR3): 107 nM
- IC50 (MIA PaCa-2): 175 nM
- cyclin D degradation after pretreatment with MG-132, MLN4924 or TAK-243 [2]: diminished the cyclin D degradation effect
- time course of cyclin D1, cyclin D2 and cyclin D3 protein level reduction [2]: significantly reduced as early as one hour following treatment
- cyclin D1, cyclin D2, cyclin D3, CDK4 and CDK6 protein levels [2]: reduced cyclin D1, cyclin D2, cyclin D3, CDK4 and CDK6 protein levels in a concentration-dependent manner
- cyclin D1, cyclin D2, cyclin D3, CDK4 and CDK6 protein levels [3]: reduced cyclin D1, cyclin D2, cyclin D3, CDK4 and CDK6 protein levels in a concentration-dependent manner

SMILES: CC(=O)c1c(C)c2cnc(Nc3ccc(N4CCN(CC(=O)NCCOCCOCCOCCOCCOCCNc5ccc(C(=O)Nc6nc(C)c(C)s6)c(C)c5)CC4)cn3)nc2n(C2CCCC2)c1=O [CPD-031, 4-((1-(4-(6-((6-Acetyl-8-cyclopentyl-5-methyl-7-oxo-7,8-dihydropyrido[2,3-d]pyrimidin-2-yl)amino)pyridin-3-yl)piperazin-1-yl)-2-oxo-6,9,12,15,18-pentaoxa-3-azaicosan-20-yl)amino)-N-(4,5-dimethylthiazol-2-yl)-2-methylbenzamide]
- Kd (DDB1): 5700 nM
- CyclinD1 Degradation (200 nM) (cyclin D1 [1]): A (protein percentage degradation >=80%)
- inhibition at 0.2 µM (CDK4): > 80%
- IC50 (Calu-1): 9 nM
- IC50 (NCI-H522): 155 nM
- IC50 (MDA-MB-453): 300 nM
- IC50 (BT-549): 110 nM
- IC50 (KURAMOCHI): 190 nM
- IC50 (OVCAR3): 39 nM
- IC50 (MIA PaCa-2): 57 nM
- cyclin D degradation after pretreatment with MG-132, MLN4924 or TAK-243 [2]: diminished the cyclin D degradation effect
- time course of cyclin D1, cyclin D2 and cyclin D3 protein level reduction [2]: significantly reduced as early as one hour following treatment
- cyclin D1, cyclin D2, cyclin D3, CDK4 and CDK6 protein levels [2]: downregulated the protein levels of cyclin D1, cyclin D2, cyclin D3, CDK4, CDK6, and downstream phosphorylated Rb in a concentration-dependent manner
- cyclin D1 degradation in DDB1 knockout versus parental cells (cyclin D1 [4]): partially compromised by depletion of DDB1 E3 ligase

From patent US20250235543A1, “MODIFIED PROTEINS AND PROTEIN DEGRADERS” (Cullgen (Shanghai), Inc., priority 2021, published 2025)
